Where “and” joins values, the source holds several entries; their conditions need not be identical. Identical values can stand only once.
Assays:
[1] = T1 weighted in vivo 7T MRI imaging and bio-distribution; design: species or system BALB/c mice
Description: In vivo 7T MRI measurements of the disclosed compounds in normal mice were conducted. The images were acquired at various time points after solutions of commercial GdDOTA complex (DOTAREM), GdL and PtGdL were injected. […] GdL was immediately captured by the liver, spleen and the kidneys (FIGS. 13A and 14A). […] In comparison to GdDOTA, GdL presents a similar pattern of biodistribution in the kidneys but a slower clearance rate in the liver (0.002 vs 0.016 enh/min). However, PtGdL presents a delayed capture, longer remanence and clearance compared to GdL.
All animal experiments were performed in accordance with the institutional animal protocol guidelines in place at Paris Descartes University, (saisine CEEA34.JS.142.1) and approved by the Institute's Animal Research Committee.
Wild-type female 8 weeks BALB/c mice (Elevage Janvier, Le Genest-St-Isle, France) were anaesthetized with isoflurane (1.5%, with air/O2 0.5/0.25 L·min^−1) inhalation and placed in a dedicated contention cradle. 300 μL of Gadolinium complexes in 0.9% physiological serum were intravenously injected via the tail vein while the mouse was in the scanner. For reproducibility studies, 3 mice per group were injected (n=3).
The scanning protocol was developed using Bruker Paravision 5.1 software. DCE Dynamic contrast Enhanced sequence was recorded using Intragate Flash multislices for motion free artifacts T1 weighted sequence (TR=100 ms, TE=4 ms, alpha=80°). The final images have a spatial resolution of […] in plane. The total scan time was in the order of 3 min 14 s per images. The dynamic follow-up is measured during in a scan time of 40 minutes.
To study the biodistribution of each complex, several regions of interest (ROI) were monitored: the liver, muscle, spleen, kidney, and vessels. The corresponding MRI intensity related to the amount of the Gd complex contrast agents was plotted versus time to visualize the uptake and clearance of each complex into the organs. Comparison with commercial GdDOTA (DOTAREM, Guerbet, France) was also performed at the corresponding concentration of Gd (10 mM).

HeLa cells [2] = experiment: Two-photon induced activation, in vitro imaging and photo-cytotoxicity of PtGdL; format: cell-based, human
Description: The cells were incubated with PtGdL (1, 2, 5, 10 μM) for 12 hours. The complexes (cell impermeable and dissolved in the medium) were washed out with PBS buffer. The cells with complexes were placed in the tissue culture chamber (5% CO2, 37° C.) inside the two-photon confocal microscope. In vitro images were captured by using the Leica SP8 (upright configuration) confocal microscope which equipped with femto-second laser (wavelength: 700 to 1000 nm) and 40×/60× oil immersion objective. […]

HeLa cells [3] = experiment: MTT dark cytotoxicity in HeLa cells (PtGdL study); format: cell-based, human; details: 24 hours
Description: (§1) Human cervical cancer HeLa cells were grown in Dulbecco's Modified Eagle Medium (DMEM). Human lung diploid fibroblasts-MRC-5 and prostate stromal-WPMY-1 cells were obtained from the cell resource center of Shanghai Institute of Biological Sciences, Chinese Academy of Sciences. MRC-5 and WPMY-1 are growth in MEM (GIBCO 41500034) and supplemented with 10% (v/v) fetal bovine serum, 1% penicillin and streptomycin at 37° C. and 5% CO2. […] After that, formazan was fully dissolved in DMSO through oscillation. Finally, the absorbance of solution was measured with Biotek Power wave xsMicroplate Reader at the wavelength of 570 nm and 690 nm.

[4] = Photo-induced dissociation of the cisplatin unit in tris buffer monitored by emission; format: physicochemical; details: tris buffer pH 7.4, UV 365 nm, 5 mW
Description: One of the key issues is the photodissociation level of the Pt moiety from the compounds described herein. The triplet states of the chromophores before and after photo-release the drug or upon binding with αvβ3 isoform were measured. Based on the synthetic protocols described herein, La (lanthanum) and Gd (gadolinium) analogs can be synthesized to measure the triplet states of the chromophores as well. The measurements of the triplet states of these chromophores phosphorescence and their phosphorescence lifetime was undertaken at low temperature (77K). The photodissociation kinetics of PtEuL were investigated by monitoring the emission spectrum with different irradiation times of UVA/NIR (light dosage=4 J cm^−2). The plot of responsive and initial emission intensity at 615 nm (^5D0→^7F2) vs time will be fitted in the exponential growth and decay equation to obtain the pseudo-first order rate constant.
The linear light induced dissociation of PtGdL in tris buffer (20 mM Tris base, 50 mM NaCl, pH 7.4) was monitored by determination of the emission intensity of solution of PtGdL in tris buffer with different light dosage of 365 nm UV light. In general, 3 mL of the solution of PtGdL (3 μM in tris buffer) in a 3.5 mL quartz cuvette was irradiated with a 365 nm UV lamp (5 mW) with stirring. The emission spectra of the solution were recorded at different time points (0, 1, 3, 5, 7, 10, 15, 20, 30, 45, 60, 75 and 90 min).
(Ln=Eu or Gd). The solution-state electronic adsorption and emission spectra of all the complexes and the ligand were recorded at 298 K (FIGS. 28A-28D). The EuL complex is the product of PtEuL after photo-dissociation and was used to monitor the photo-dissociation of [Pt—(NH3)2Cl]^+ from PtEuL. […] The photo-dissociation of PtEuL (3 μM in Tris-buffer, pH=7.4, 50 mM NaCl) was monitored by the variation of the Eu emission (λem=615 nm, ^5D0→^7F2) with the irradiation time. […] The pseudo-first order rate constant k was determined to be 0.53 min^−1 under these experimental conditions (FIG. 28D).

[5] = Dynamic light scattering of PtGdL solution; format: physicochemical; details: aqueous solution, 25.0° C.
Description: Dynamic Light Scattering (DLS) to investigate the presence of aggregates in a PtGdL solution was performed in Mavernm Zetasizer Nano-S equipment, at 25.0° C.

WPMY-1 cells = experiment: MTT dark cytotoxicity in WPMY-1 cells (PtGdL study); format: cell-based, human; details: 24 hours
Description: as §1

[6] = Photo-induced dissociation and dark stability of RuEuL in aqueous solution; format: physicochemical
Description: The photo-induced dissociation of RuEuL was simultaneously studied by emission (FIG. 21) spectroscopy, and by HPLC (FIG. 22) of the RuEuL solution (5 μM in H2O) after continuous irradiation with visible light (λirr.=488 nm, 1 W) during various times (1-8 min). After irradiation, turned-on europium emission is observed. This observation can be explained by the existence of dissociative states on Ru(II), which were proposed by Saddler et al. The photo-dissociation products, EuL and [Ru(OH)(bpy)2(H2O)]^+, have been further qualitatively identified by HPLC (FIG. 22). Before light irradiation, only one HPLC peak corresponding to RuEuL (retention time, R=11.3 min) is observed. After irradiation, this peak disappears, and two peaks of dissociated photoproducts appear.
In order to obtain the exact amount of the photo-released ruthenium(II) moiety for biomedical purpose and to evaluate drug release in real time, quantitative analysis is required. It can be achieved by LC/ESI-MS for simultaneous detection of the photo-products EuL and [Ru(OH)(bpy)2(H2O)]^+. Moreover, the switchable europium(III) emission can be considered as a real-time signaling technique for the released anticancer Ru(II) complexes and can also be exploited quantitatively. […]

HeLa cells [7] = experiment: Dark and photo cytotoxicity of RuEuL against HeLa cells; format: cell-based, human; details: HeLa
Description: To determine the potential of RuEuL as a photo-controlled prodrug cell cytotoxicity studies were performed on human cervical cancer (HeLa) cells, and EuL as control (FIGS. 25A and 25B). Cells were incubated 6 hours in the dark before irradiation (488 nm, 1 J); dark controls were run in parallel.

Plasmid DNA [8] = experiment: Agarose gel electrophoresis of plasmid DNA with RuEuL / EuL; format: biochemical; details: 20 μM
Description: Furthermore, the interaction of photo-activated RuEuL with DNA was examined by agarose gel electrophoresis (FIG. 24). Plasmid DNA (22.5 μg/mL in Tris/EDTA (TE) buffer) was incubated with the compounds (20 μM), irradiated by 488 nm light (dose 50 J m^−2) or not (control) and then subjected to 1% agarose gel electrophoresis. The separated DNA was stained with GelRed Nucleic Acid Stain (BIOTIUM) and imaged using Tanon 1600 Gel Imaging System (Tanon Science & Technology Co., Ltd).

HeLa cells [9] = experiment: Confocal microscopy of light-induced cytotoxicity of RuEuL; format: cell-based, human; details: 50 μM RuEuL or 10 μM PtEuL, 6 hours, 7 mW
Excerpt: The light-induced cytotoxicity of RuEuL towards HeLa cells was also investigated by confocal microscopy (FIG. 26B) with the PtEuL complex tested under identical conditions for comparison. […] In cell culture studies, red Eu(III) emission from RuEuL was observed after 15-min irradiation. (FIG. 26A) The emission intensity increased with longer irradiation time because more excitation energy induced the dissociation of more Ru(II) moieties from the parent molecules, and the resulting EuL units generated stronger light emission. […] PtEuL is photo-activated upon ultraviolet A irradiation (λ=365 nm). However, UVA irradiation could cause severe adverse effects on human cells.

Plasmid DNA [10] = experiment: Agarose gel electrophoresis of plasmid DNA after UVA irradiation (PtEuL); format: biochemical; details: 20 μM, UVA light dose 50 J m^−2
Excerpt: The DNA gel images were obtained using GelRed Nucleic Acid Stain (BIOTIUM).
Direct binding of PtEuL with DNA in dark were studied by circular dichroism (CD). […] The interaction of photo-activated PtEuL with DNA was examined by agarose gel electrophoresis (FIG. 29B). After UVA irradiation with PtEuL, conversion of the supercoiled conformer of the plasmid DNA to its open-circular conformer, which indicates DNA nicking (single strand break) and linear conformer, which indicates double strand break, is clearly seen.

O.O=[N+]([O-])[O-].[Gd+3].[NH3+][Pt-2]([NH3+])([Cl])[n+]1ccc(C(=O)Nc2ccc(C#Cc3ccnc(CN4CCN(CC(=O)[O-])CCN(CC(=O)[O-])CCN(CC(=O)[O-])CC4)c3)cc2)cc1 [PtGdL]
change of signal enhancement ([1]; after 24 hours): did not change greatly | remanence time in renal cortex ([1]; mice, i.v. tail vein): 4 to 18 h | delay in capture, depending on the tissue of interest ([1]; mice, liver, spleen, kidneys): 6 to 9 min | dosage concentration at which dramatic cell death can be observed (HeLa cells [2]; 730 nm laser excitation for 30 min): less than 5 μM | emission and cell death absent exposure to laser irradiation (HeLa cells [2]; no laser irradiation): no significant emission and/or cell death | IC50 (HeLa cells [3]): ~23.6 µM and ~25 µM | pseudo-first order rate constant k for the dissociation of the cisplatin unit [4]: 0.051 min⁻¹ | PDI (DLS) [5]: 0.156 | size of aggregates in solution (DLS) ([5]; single peak): 672±24 nm | IC50 (WPMY-1 cells): 43.9 ± 1.1 µM

O=C([O-])CN1CCN(CC(=O)[O-])CCN(CC(=O)[O-])CCN(CC(=O)[O-])CC1.[Gd+3] [GdDOTA, reference compound]
clearance rate in the liver ([1]; mice, i.v. tail vein): 0.016 enh/min

O.O=C([O-])CN1CCN(CC(=O)[O-])CCN(Cc2cc(C#Cc3ccc(NC(=O)c4ccncc4)cc3)ccn2)CCN(CC(=O)[O-])CC1.[Gd+3] [GdL]
decrease of signal enhancement ([1]; 4 hours after injection): 90% | clearance rate in the liver ([1]; mice, i.v. tail vein): 0.002 enh/min | cell death, control under the same experimental conditions (HeLa cells [2]; with 730 nm laser irradiation): no significant cell death | IC50 (HeLa cells [3]): > 200 µM | IC50 (WPMY-1 cells): > 200 µM

O.O=C([O-])CN1CCN(CC(=O)[O-])CCN(Cc2cc(C#Cc3ccc(NC(=O)c4cc[n+]([Ru-4]56([Cl])([n+]7ccccc7-c7cccc[n+]75)[n+]5ccccc5-c5cccc[n+]56)cc4)cc3)ccn2)CCN(CC(=O)[O-])CC1.[Cl-].[Eu+3] [RuEuL]
pseudo-first order rate constant k of photo-dissociation ([6]; 5 μM in H2O, visible laser irradiation, 1 W): 0.43 min⁻¹ | stability in the dark ([6]; dark, 37° C., 24 hours): stable | IC50 (HeLa cells [7]; 6 hours in the dark then irradiation (488 nm, 1 J), read-out: light IC50): 32.5 µM | IC50 (HeLa cells [7]; dark, read-out: dark IC50): > 200 µM | migration of DNA with light excitation (Plasmid DNA [8]; 488 nm light, dose 50 J m^−2): delayed | migration of DNA without irradiation (Plasmid DNA [8]; control lanes): left the DNA intact and showed normal migration | cell damage and red emission on 488 nm laser irradiation (HeLa cells [9]): cell lysis was detected after 15-min irradiation

N.N.[Cl][Pt][Cl] [cisplatin, reference compound]
DNA photocleavage activity (Plasmid DNA [10]): less significantly
